The source of these data is patent US11096926B2, “(3AR)-1,3A,8-trimethyl-1,2,3,3A,8,8A-hexahydropyrrolo[2,3-b]indol-5-yl phenylcarbamate and methods of treating or preventing neurodegeneration” (priority 2011, dated 2021).

Read-outs that look alike come from different tables or passages of the source.

Data set [1] is described as follows: Plasma pharmacokinetics of phenserine in men and women. The settings on record: 15 mg dose on day 35 of study. The source says:
PT: phenserine; N^8: N^8-desamine phenserine; N^1: N^1-desmethyl phenserine; N^1,N^8: N^1,N^8-desmethyl phenserine.

Data set [2] concerns APP. The experiment in a line: 35S incorporation into newly synthesized APP in SH-SY-5Y cells. It counts as cell-based. As to conditions: SH-SY-5Y human neuroblastoma cells; 10 min 35S incorporation; APP mRNA and total protein synthesis not altered. As for the experimental part:
FIG. 5A: 10 min ^35S incorporation into APP, in SH-SY-5Y human neuroblastoma cells. FIG. 5B: newly synthesized total protein. FIG. 5C: newly synthesized APP. FIG. 5D: APP mRNA.

The subject of data set [3] is APP. Type of data set: in vivo, mouse. The settings on record: trisomy Down Syndrome (Ts65Dn) mice; to control non-DS brain levels.
For data set [4], the target named is T1, AChE (Mus musculus, UniProt P21836).
T1 construct: from tissue; host or cells: brain of Ts65Dn mice
T1 sequence (P21836 32-614): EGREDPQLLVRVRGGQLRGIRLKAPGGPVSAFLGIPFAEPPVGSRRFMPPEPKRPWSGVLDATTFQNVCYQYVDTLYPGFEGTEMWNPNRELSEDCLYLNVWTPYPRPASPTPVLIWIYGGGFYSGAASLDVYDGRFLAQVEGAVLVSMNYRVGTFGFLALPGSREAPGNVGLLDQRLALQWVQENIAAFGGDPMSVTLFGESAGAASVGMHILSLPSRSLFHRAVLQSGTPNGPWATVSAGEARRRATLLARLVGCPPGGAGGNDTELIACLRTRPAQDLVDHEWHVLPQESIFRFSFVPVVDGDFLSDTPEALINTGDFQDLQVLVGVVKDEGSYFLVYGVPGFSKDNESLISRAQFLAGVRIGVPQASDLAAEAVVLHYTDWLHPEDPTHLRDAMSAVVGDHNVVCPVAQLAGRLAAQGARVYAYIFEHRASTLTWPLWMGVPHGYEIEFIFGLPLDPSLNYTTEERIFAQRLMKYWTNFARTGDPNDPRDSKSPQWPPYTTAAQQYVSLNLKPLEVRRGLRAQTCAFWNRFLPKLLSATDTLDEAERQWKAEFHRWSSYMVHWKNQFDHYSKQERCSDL
The experiment in a line: Brain AChE levels in Ts65Dn mice. Type of data set: in vivo. As to conditions: 50 mg/kg. The source says: (§1) FIG. 17 is a series of graphs illustrating effects of Compound (1) in Ts65Dn mouse model of Down Syndrome.

The subject of data set [5] is NGF. The experiment in a line: Brain NGF levels in Ts65Dn mice. Type of data set: in vivo, mouse.
Text: as §1

For data set [6], the system named is APP. Type of data set: in vivo, mouse. The settings on record: APP23 transgenic AD mice; 25 mg daily for 14 days; mRNA levels not lowered. The method, then: APP23 transgenic AD mice were treated with 25 mg of Compound (1) daily for 14 days.
For data set [7], the system named is APP, Aβ40 and Aβ42. The experiment in a line: APP, Aβ40 and Aβ42 levels in mouse brain (Western Blot, ELISA). Type of data set: in vivo. The settings on record: once daily x 21 day. As for the experimental part:
FIG. 15 is a series of graphs illustrating the in vivo reduction of APP, Aβ40 and Aβ42 levels in mouse brain by Compound (1). Drug was administered once daily×21 day: APP—Western Blot, Aβ—Specific ELISA for 1-40 and 1-42 forms.
Background: Immunoblotting shows a protein as a band on a membrane.

Data set [8] can be described thus: Human pharmacokinetics in plasma and CSF (proof of mechanism study, MCI patients). Type of data set: in vivo. As to conditions: for half-life: human, po. As for the experimental part: (§2) For a proof of mechanism study of Compound (1), patients suffering from mild cognitive impairment (MCI) were treated with Compound (1) for 10 days. The patients were dosed with 4×60 mg Compound (1) for 10 days orally, using Posiphen® powder filled into gelatin capsules. Cerebrospinal fluid (CSF) and plasma were drawn from the subjects over a 12 hour period on day 0 and day 11.
Pharmacokinetic analysis was performed for Compound W) and selected metabolites: N^1-norposiphen, N^8-norposiphen, and N^1,N^8-norposiphen. Pharmacodynamic analysis was performed for APP protein and other AD associated biomarkers in CSF and plasma: APP, Aβ1-40, Aβ1-42, N-APP, AChEI, BChEI, Tau/p-Tau, NGF, BDNF, and inflammatory factors.
(d) in humans, plasma and CSF were analyzed 0 to 12 hours, after administration of the drug.
The levels of Compound (1) and selected metabolites in human plasma (FIG. 22A) and human CSF (FIG. 22B) were determined. […] This was corroborated by measuring half-life of Posiphen® in brains of mice.

A short description of data set [9]: Binding to brain proteins, rat brain homogenate. It counts as in vitro ADME. The method, then:
(§3) The binding of Compound (t) and metabolites to brain proteins was determined to be ˜96% (rat and human brain homogenate).

A short description of data set [10]: Binding to brain proteins, human brain homogenate. It counts as in vitro ADME. As for the experimental part:
as §3

The test system of data set [11] is Tau. Kind of data set: Tau levels before and after 10 days treatment in MCI patients. It counts as in vivo, human. The settings on record: given for 10 days. The method, then: FIG. 24 is a graph illustrating the comparison of Tau before and after treatment with Compound (1) in healthy volunteers.
as §2

Data set [12] concerns alpha-Syn. As to conditions: dopaminergic SH-SY5Y cells; quantitative Western blotting, standardized for β-actin; read-out: efficacy on alpha-Syn expression (IC50); cited from earlier work.

As to `CN1CC[C@@]2(C)c3cc(OC(=O)Nc4ccccc4)ccc3N(C)[C@@H]12` [phenserine], the “half life (plasma)” value in data set [1] is “less than one”.
The term half-life denotes the time needed for the level to fall by half in the phase considered. As a reminder, the IC50 is the concentration at which inhibition is half-maximal. For `CN1CC[C@]2(C)c3cc(OC(=O)Nc4ccccc4)ccc3N(C)C12` (stereo partly drawn) [Compound (1), (3aR)-1,3a,8-trimethyl-1,2,3,3a,8,8a-hexahydropyrrolo[2,3-b]indol-5-yl phenylcarbamate], the “newly synthesized APP” value in [2] is reported as “reduces newly synthesized APP”. In addition, the “lowering of APP levels in brain” value in [3] was determined as 30%. Besides, the “lowering of brain AChE levels” value in data set [4] is 50%. Besides, the “NGF levels in brain” value in [5] is recorded as “elevated”. The “APP levels in the brain” value in [6] is reported as “lowered APP levels”. Moreover, the “APP, Aβ40 and Aβ42 levels in mouse brain” value in data set [7] is “reduction”. The half-life was around 12 h in [8] (CSF, read-out: half-life in human CSF (converted)) and around 5 h in data set [8] (plasma, read-out: half-life in human plasma (converted)). Besides, the “half-life in human plasma” value in [8] (oral, listed as Posiphen) came to 5 h. Moreover, the “binding to brain proteins” value in data set [9] and in data set [10] was around 96% in each case. Also, in data set [11], the Tau levels entry is recorded as “lowers their Tau levels back to the levels found in healthy volunteers”. In data set [12], the IC50 is below 5 µM.
